In patent US6737383B1, “Herbicidal oxadiazolidines” (priority 1999, dated 2004):

Columns and labels:
wheat = assay: Test B pre/postemergence wheat; format: in vivo, Triticum aestivum; conditions: for Plant response rating, Wheat: scale of 0 to 10 where 0 is no effect and 10 is complete control
How it was run: (§1)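 Test chemicals in a non-phytotoxic solvent mixture with surfactant were sprayed preemergence onto planted seeds and postemergence onto plants 2 to 18 cm tall (1- to 4-leaf stage). After twelve to sixteen days in a greenhouse, injury was visually rated against untreated controls from 0 (no effect) to 10 (complete control).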

rape = assay: Test B pre/postemergence rape; format: in vivo, Brassica napus; conditions: for Plant response rating, Rape: scale of 0 to 10 where 0 is no effect and 10 is complete control
How it was run: as §1

purple nutsedge = assay: Test B pre/postemergence purple nutsedge; format: in vivo, Cyperus rotundus; conditions: for Plant response rating, Nutsedge: scale of 0 to 10 where 0 is no effect and 10 is complete control
How it was run: as §1

wild oat = assay: Test B pre/postemergence wild oat; format: in vivo, Avena fatua; conditions: for Plant response rating, Wild oats: scale of 0 to 10 where 0 is no effect and 10 is complete control
How it was run: as §1

smallflower flatsedge = assay: Test B flood test smallflower flatsedge; format: in vivo, Cyperus difformis
How it was run: (§2)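 Plants were grown to the 2-leaf stage before treatment with test chemical, then held in a greenhouse for twelve to sixteen days. Injury was visually rated against untreated controls on a 0–10 scale, where 0 is no effect and 10 is complete control.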

velvetleaf = assay: Test B pre/postemergence velvetleaf; format: in vivo, Abutilon theophrasti; conditions: for Plant response rating, Velvetleaf: scale of 0 to 10 where 0 is no effect and 10 is complete control
How it was run: as §1

bedstraw = assay: Test B pre/postemergence bedstraw; format: in vivo, Galium aparine; conditions: Preemergence, scale of 0 to 10 where 0 is no effect and 10 is complete control
How it was run: as §1

pigweed = assay: Test B pre/postemergence pigweed; format: in vivo, Amaranthus retroflexus; conditions: for Plant response rating, Redroot pigweed: scale of 0 to 10 where 0 is no effect and 10 is complete control
How it was run: as §1

giant foxtail = assay: Test B pre/postemergence giant foxtail; format: in vivo, Setaria faberii
How it was run: as §1

surinam grass = assay: Test B pre/postemergence surinam grass; format: in vivo, Brachiaria decumbens
How it was run: as §1

soybean = assay: Test B pre/postemergence soybean; format: in vivo, Glycine max; conditions: for Plant response rating, Soybean: scale of 0 to 10 where 0 is no effect and 10 is complete control
How it was run: as §1

sugar beet = assay: Test B pre/postemergence sugar beet; format: in vivo, Beta vulgaris; conditions: for Plant response rating, Sugarbeets: scale of 0 to 10 where 0 is no effect and 10 is complete control
How it was run: as §1

corn = assay: Test B pre/postemergence corn; format: in vivo, Zea mays
How it was run: as §1

duck salad = assay: Test B flood test duck salad; format: in vivo, Heteranthera limosa
How it was run: as §2

rice = assay: Test B flood test rice; format: in vivo, Oryza sativa
How it was run: as §2

cocklebur = assay: Test B pre/postemergence cocklebur; format: in vivo, Xanthium strumarium
How it was run: as §1

[1] = Postemergence, Rate 250 g/ha, scale 0 to 10
[2] = Preemergence, Rate 250 g/ha, scale 0 to 10, 0 is no effect, 10 is complete control
[3] = Preemergence, Rate 500 g/ha, scale 0 to 10, 0 is no effect, 10 is complete control
[4] = Rate 62 g/ha, Postemergence, scale 0 to 10, 0 no effect, 10 complete control
[5] = Rate 125 g/ha, Postemergence, scale 0 to 10, 0 is no effect, 10 is complete control
[6] = Rate 62 g/ha, flood test species, Pre-emergence, visual evaluation after twelve to sixteen days
[7] = Rate 125 g/ha, under heading Pre-emergence, flood test species, visual evaluation after twelve to sixteen days
[8] = Rate 250 g/ha, Pre-emergence (flood test species), scale 0 to 10, 0 is no effect, 10 is complete control
[9] = Rate 500 g/ha, Pre-emergence, flood test species, scale 0 to 10 (0 no effect, 10 complete control)
[10] = Postemergence, Rate 500 g/ha, scale of 0 to 10 where 0 is no effect and 10 is complete control
[11] = Preemergence, Rate 62 g/ha, scale of 0 to 10 where 0 is no effect and 10 is complete control
[12] = Preemergence, Rate 125 g/ha, scale of 0 to 10 where 0 is no effect and 10 is complete control

`CC(C)N(C(=O)n1oc(=O)n(CC#N)c1=O)c1ccc(Cl)cc1` [Compound 476] was tested, and the “Wheat plant response rating” value (wheat; [1]) was 0, the “Plant response rating, Wheat” value (wheat; Preemergence, Rate 62 g/ha) was 0 and the “Plant response rating, Wheat” value (wheat; Preemergence, Rate 125 g/ha) was 0. For the same compound, the “Wheat plant response rating” value (wheat; [2]) was 0, the “Wheat plant response rating” value (wheat; [3]) was 0 and the “Wheat plant response rating” value (wheat; [4]) was 0. For the same compound, the “Wheat plant response rating” value (wheat; [5]) was 0, the “Rape plant response rating” value (rape; [1]) was 0 and the “Plant response rating, Rape” value (rape; Preemergence, Rate 62 g/ha) was 0. For the same compound, the “Plant response rating, Rape” value (rape; Preemergence, Rate 125 g/ha) was 0, the “Rape plant response rating” value (rape; [2]) was 0 and the “Rape plant response rating” value (rape; [3]) was 0. For the same compound, the “Rape plant response rating” value (rape; [4]) was 0, the “Rape plant response rating” value (rape; [5]) was 0 and the “Nutsedge plant response rating” value (purple nutsedge; [1]) was 0. The “Plant response rating, Nutsedge” value (purple nutsedge; Preemergence, Rate 62 g/ha) was 0, the “Plant response rating, Nutsedge” value (purple nutsedge; Preemergence, Rate 125 g/ha) was 0 and the “Nutsedge plant response rating” value (purple nutsedge; [2]) was 0. The “Nutsedge plant response rating” value (purple nutsedge; [3]) was 0, the “Nutsedge plant response rating” value (purple nutsedge; [4]) was 0 and the “Nutsedge plant response rating” value (purple nutsedge; [5]) was 0. For the same compound, the “Wild oats plant response rating” value (wild oat; [1]) was 0, the “Plant response rating, Wild oats” value (wild oat; Preemergence, Rate 62 g/ha) was 0 and the “Plant response rating, Wild oats” value (wild oat; Preemergence, Rate 125 g/ha) was 0. For the same compound, the “Wild oats plant response rating” value (wild oat; [2]) was 0, the “Wild oats plant response rating” value (wild oat; [3]) was 0 and the “Wild oats plant response rating” value (wild oat; [4]) was 0. For the same compound, the “Wild oats plant response rating” value (wild oat; [5]) was 0, the “Plant response rating, S. Flatsedge (0 to 10 scale, 0 is no effect, 10 is complete control)” value (smallflower flatsedge; [6]) was 0 and the “S. Flatsedge plant response rating (0 to 10 scale, 0 is no effect, 10 is complete control)” value (smallflower flatsedge; [7]) was 0. For the same compound, the “S. Flatsedge plant response rating” value (smallflower flatsedge; [8]) was 0, the “S. Flatsedge plant response rating” value (smallflower flatsedge; [9]) was 0 and the “Velvetleaf plant response rating” value (velvetleaf; [1]) was 2. For the same compound, the “Plant response rating, Velvetleaf” value (velvetleaf; Preemergence, Rate 62 g/ha) was 0, the “Plant response rating, Velvetleaf” value (velvetleaf; Preemergence, Rate 125 g/ha) was 0 and the “Velvetleaf plant response rating” value (velvetleaf; [2]) was 0. The “Velvetleaf plant response rating” value (velvetleaf; [3]) was 0, the “Velvetleaf plant response rating” value (velvetleaf; [4]) was 0 and the “Velvetleaf plant response rating” value (velvetleaf; [5]) was 1. For the same compound, the “Plant response rating, Bedstraw” value (bedstraw; Rate 62 g/ha) was 0, the “Plant response rating, Bedstraw” value (bedstraw; Rate 125 g/ha) was 0 and the “Redroot pigweed plant response rating” value (pigweed; [1]) was 0. For the same compound, the “Plant response rating, Redroot pigweed” value (pigweed; Preemergence, Rate 62 g/ha) was 0, the “Plant response rating, Redroot pigweed” value (pigweed; Preemergence, Rate 125 g/ha) was 0 and the “Redroot pigweed plant response rating” value (pigweed; [2]) was 2. The “Redroot pigweed plant response rating” value (pigweed; [3]) was 4, the “Redroot pigweed plant response rating” value (pigweed; [4]) was 0 and the “Redroot pigweed plant response rating” value (pigweed; [5]) was 0. For the same compound, the “Giant foxtail plant response rating” value (giant foxtail; [1]) was 0, the “Giant foxtail plant response rating” value (giant foxtail; [10]) was 0 and the “Plant response rating, Giant foxtail” value (giant foxtail; [11]) was 0. The “Plant response rating, Giant foxtail” value (giant foxtail; [12]) was 0, the “Giant foxtail plant response rating” value (giant foxtail; [2]) was 0 and the “Giant foxtail plant response rating” value (giant foxtail; [3]) was 0. For the same compound, the “Giant foxtail plant response rating” value (giant foxtail; [4]) was 0, the “Giant foxtail plant response rating” value (giant foxtail; [5]) was 0 and the “B. signalgrass plant response rating” value (surinam grass; Postemergence, Rate 250 g/ha, scale 0 to 10, 0 no effect, 10 complete control) was 0. For the same compound, the “B. signalgrass plant response rating” value (surinam grass; [10]) was 0, the “Plant response rating, B. signalgrass” value (surinam grass; [11]) was 0 and the “Plant response rating, B. signalgrass” value (surinam grass; [12]) was 0. For the same compound, the “B. signalgrass plant response rating” value (surinam grass; [2]) was 0, the “B. signalgrass plant response rating” value (surinam grass; [3]) was 0 and the “B. signalgrass plant response rating” value (surinam grass; [4]) was 0. The “B. signalgrass plant response rating” value (surinam grass; [5]) was 0, the “Soybean plant response rating” value (soybean; [1]) was 2 and the “Plant response rating, Soybean” value (soybean; Preemergence, Rate 62 g/ha) was 0. For the same compound, the “Plant response rating, Soybean” value (soybean; Preemergence, Rate 125 g/ha) was 0, the “Soybean plant response rating” value (soybean; [2]) was 0 and the “Soybean plant response rating” value (soybean; [3]) was 0. For the same compound, the “Soybean plant response rating” value (soybean; [4]) was 0, the “Soybean plant response rating” value (soybean; [5]) was 1 and the “Sugarbeets plant response rating” value (sugar beet; [1]) was 0. The “Plant response rating, Sugarbeets” value (sugar beet; Preemergence, Rate 62 g/ha) was 0, the “Plant response rating, Sugarbeets” value (sugar beet; Preemergence, Rate 125 g/ha) was 0 and the “Sugarbeets plant response rating” value (sugar beet; [2]) was 0. The “Sugarbeets plant response rating” value (sugar beet; [3]) was 0, the “Sugarbeets plant response rating” value (sugar beet; [4]) was 0 and the “Sugarbeets plant response rating” value (sugar beet; [5]) was 0. For the same compound, the “Corn plant response rating” value (corn; [1]) was 0, the “Corn plant response rating” value (corn; [10]) was 0 and the “Plant response rating, Corn” value (corn; [11]) was 0. For the same compound, the “Plant response rating, Corn” value (corn; [12]) was 0, the “Corn plant response rating” value (corn; [2]) was 0 and the “Corn plant response rating” value (corn; [3]) was 0. For the same compound, the “Corn plant response rating” value (corn; [4]) was 0, the “Corn plant response rating” value (corn; [5]) was 0 and the “Plant response rating, Ducksalad (0 to 10 scale, 0 is no effect, 10 is complete control)” value (duck salad; [6]) was 0. The “Ducksalad plant response rating (0 to 10 scale, 0 is no effect, 10 is complete control)” value (duck salad; [7]) was 0, the “Ducksalad plant response rating” value (duck salad; [8]) was 0 and the “Ducksalad plant response rating” value (duck salad; [9]) was 0. For the same compound, the “Plant response rating, Rice (0 to 10 scale, 0 is no effect, 10 is complete control)” value (rice; [6]) was 0, the “Rice plant response rating (0 to 10 scale, 0 is no effect, 10 is complete control)” value (rice; [7]) was 0 and the “Rice plant response rating” value (rice; [8]) was 0. For the same compound, the “Rice plant response rating” value (rice; [9]) was 0, the “Cocklebur plant response rating” value (cocklebur; [1]) was 0 and the “Cocklebur plant response rating” value (cocklebur; [10]) was 0. The “Plant response rating, Cocklebur” value (cocklebur; [11]) was 0, the “Plant response rating, Cocklebur” value (cocklebur; [12]) was 0 and the “Cocklebur plant response rating” value (cocklebur; [2]) was 0. For the same compound, the “Cocklebur plant response rating” value (cocklebur; [3]) was 0, the “Cocklebur plant response rating” value (cocklebur; [4]) was 0 and the “Cocklebur plant response rating” value (cocklebur; [5]) was 0.
